{"source": "EPA's ToxValDB 9.5", "key": {"Rattus norvegicus [1]": {"tested_on": "Rattus norvegicus", "conditions": "M/F"}, "Rattus norvegicus [2]": {"tested_on": "Rattus norvegicus", "conditions": "subchronic, oral, M/F, Fischer 344"}, "Rattus norvegicus [3]": {"tested_on": "Rattus norvegicus", "conditions": "for NOAEL: diet"}, "Rattus norvegicus [4]": {"tested_on": "Rattus norvegicus", "conditions": "for LD50 / LC50: acute"}, "Oryctolagus sp.": {"tested_on": "Oryctolagus sp.", "conditions": "dermal, New Zealand; for LD50: acute"}, "Rattus norvegicus [5]": {"tested_on": "Rattus norvegicus", "conditions": "Hershberger, duration: 10 days, oral, gavage"}, "[6]": {"conditions": "subchronic, duration: 90 days, oral, diet, increased liver weight, serum cholesterol, hepatic aminopyrine n-demethylase activity, and alanine transaminase levels"}, "[7]": {"conditions": "subchronic, oral, kidney lesions"}, "[8]": {"conditions": "subchronic, duration: 90 days, oral, diet, Sprague-Dawley"}, "[9]": {"conditions": "chronic, duration: 2 years, oral, diet, reduced weight gain, organ weight changes, increased mortality"}, "[10]": {"conditions": "chronic, inhalation, increased kidney, adrenal and pituitary weight"}, "[11]": {"conditions": "developmental, inhalation, Reduced maternal weight gain"}, "[12]": {"conditions": "reproduction developmental, oral, kidney, spleen, liver, and bone marrow toxicity"}, "[13]": {"conditions": "chronic, duration: 2 years, oral, diet, reduced body weight"}, "[14]": {"conditions": "reproduction developmental, duration: 4 weeks, inhalation, particle, Sprague-Dawley"}, "[15]": {"conditions": "short-term, duration: 4 weeks, oral, diet, Crl:CD(SD)"}}, "note": "Several values for one entry are separate records, joined by “and”; a condition that tells them apart may be missing. Identical values can stand only once."}
{"smiles": "CC(C)(C)[C@H](O)[C@H](Cc1ccc(Cl)cc1)n1cncn1", "note": "(racemic) [Paclobutrazol]", "values": [{"measurement": "LEL", "setting": "Rattus norvegicus [1]; [6]", "value": 62.5, "unit": "mg/kg-day"}, {"measurement": "NOEL", "setting": "Rattus norvegicus [1]; [6]", "value": 12.5, "unit": "mg/kg-day"}]}
{"smiles": "Clc1cc(Cl)c(Cl)cc1Cl", "note": "[1,2,4,5-Tetrachlorobenzene]", "values": [{"measurement": "LOAEL", "setting": "Rattus norvegicus [1]; [7]", "value": 3.4, "unit": "mg/kg-day"}, {"measurement": "NOAEL", "setting": "Rattus norvegicus [1]; [7]", "value": 0.34, "unit": "mg/kg-day"}]}
{"smiles": "CC(Cl)CCl", "note": "(configuration not stated) [1,2-Dichloropropane]", "values": [{"measurement": "NOEL", "setting": "Rattus norvegicus [2]; duration: 13 weeks, gavage, Deaths + Body Weight Changes: decrease + Histopathology: Liver/centrilobular-Congestion Liver-Hepatic fatty change Liver/centrilobular -…", "value": 250, "unit": "mg/kg-day"}, {"measurement": "LOAEL", "setting": "Rattus norvegicus [3]; short-term, duration: 2 weeks, inhalation, M/F, Fischer 344, respiratory", "value": 462, "unit": "mg/m3"}, {"measurement": "LOAEL", "setting": "Rattus norvegicus [3]; subchronic, duration: 13 weeks, oral, gavage, M, Sprague-Dawley, hematological", "value": 100, "unit": "mg/kg-day"}, {"measurement": "LOAEL", "setting": "Rattus norvegicus [1]; subchronic, duration: 13 weeks, inhalation, hyperplasia of the nasal mucosa", "value": 69.3, "unit": "mg/m3"}]}
{"smiles": "c1ccc(NNc2ccccc2)cc1", "note": "[1,2-Diphenylhydrazine]", "values": [{"measurement": "NOAEL", "setting": "Rattus norvegicus [3]; subchronic, duration: 13 weeks, oral, M, Fischer 344, hepatic", "value": 4.8, "unit": "mg/kg-day"}]}
{"smiles": "CCCCCCCCCCCCN", "note": "[1-Dodecanamine]", "values": [{"measurement": "LD50", "setting": "Rattus norvegicus [4]; oral, gavage", "value": 1020, "unit": "mg/kg"}, {"measurement": "LD50", "setting": "Rattus norvegicus [4]; oral, gavage, Wistar", "value": "> 2000", "unit": "mg/kg"}, {"measurement": "LD50", "setting": "Mus musculus; acute, oral, gavage", "value": 1160, "unit": "mg/kg"}]}
{"smiles": "C=C(Cl)CCl", "note": "[2,3-Dichloro-1-propene]", "values": [{"measurement": "LOAEL", "setting": "Rattus norvegicus [3]; short-term, duration: 11 days, inhalation, M/F, Fischer 344, respiratory", "value": 22.7, "unit": "mg/m3"}]}
{"smiles": "Clc1ccc(C(Cl)(Cl)Cl)cn1", "note": "[2-Chloro-5-trichloromethylpyridine]", "values": [{"measurement": "LC50", "setting": "Rattus norvegicus [4]; Inhalation, Fischer 344", "value": "> 108", "unit": "mg/m3"}, {"measurement": "LD50", "setting": "Rattus norvegicus [4]; oral, gavage, Sprague-Dawley", "value": "≥ 500 mg/kg and ≤ 1000 mg/kg"}, {"measurement": "NOAEL", "setting": "Rattus norvegicus [4]; short-term, duration: 2 weeks, Inhalation, Fischer 344", "value": 9.44, "unit": "mg/m3"}, {"measurement": "NOAEL", "setting": "Mus musculus; short-term, duration: 2 weeks, inhalation, B6C3F1", "value": 9.44, "unit": "mg/m3"}]}
{"smiles": "O=C(CCl)c1ccccc1", "note": "[2-Chloroacetophenone]", "values": [{"measurement": "LOAEL", "setting": "Rattus norvegicus [1]; chronic, inhalation, squamous hyperplasia of the nasal respiratory epithelium", "value": 1, "unit": "mg/m3"}]}
{"smiles": "CCCCC(C)=O", "note": "[2-Hexanone]", "values": [{"measurement": "LOAEL", "setting": "Rattus norvegicus [3]; chronic, duration: 13 months, oral, drinking water, M, Sprague-Dawley, neurological", "value": 143, "unit": "mg/kg-day"}]}
{"smiles": "CCCC(c1cc(C(C)(C)C)c(O)cc1C)c1cc(C(C)(C)C)c(O)cc1C", "note": "[4,4'-Butane-1,1-diylbis(2-tert-butyl-5-methylphenol)]", "values": [{"measurement": "LD50", "setting": "Oryctolagus sp.", "value": "> 7940", "unit": "mg/kg"}, {"measurement": "LD50", "setting": "Rattus norvegicus [4]; oral, gavage, Sprague-Dawley", "value": "> 7940", "unit": "mg/kg"}, {"measurement": "NOAEL", "setting": "Rattus norvegicus [4]; reproduction developmental, duration: 90 days, oral, diet, M, Sprague-Dawley", "value": 100, "unit": "ppm"}, {"measurement": "LOAEL", "setting": "Rattus norvegicus [4]; [8]", "value": 48, "unit": "mg/kg-day"}, {"measurement": "NOAEL", "setting": "Rattus norvegicus [4]; [8]", "value": 9.6, "unit": "mg/kg-day"}, {"measurement": "NOEL", "setting": "Rattus norvegicus [5]; Wistar, inactive + Negative + Negative + anti-androgenic + negative", "value": 125, "unit": "mg/kg-day"}, {"measurement": "NOEL", "setting": "Rattus norvegicus [5]; Wistar, inactive + Negative + Negative + anti-androgenic + negative / effects on thyroid at 125 (initial increase in T4 at 5)", "value": 125, "unit": "mg/kg-day"}]}
{"smiles": "Nc1ccc(Cl)cc1", "note": "[4-Chloroaniline]", "values": [{"measurement": "LOAEL", "setting": "Rattus norvegicus [1]; chronic, oral, nonneoplastic lesions of splenic capsule", "value": 12.5, "unit": "mg/kg-day"}]}
{"smiles": "CC1=C(C(=O)Nc2ccccc2)SCCO1", "note": "[Carboxin]", "values": [{"measurement": "LEL", "setting": "Rattus norvegicus [1]; [9]", "value": 30, "unit": "mg/kg-day"}, {"measurement": "NOEL", "setting": "Rattus norvegicus [1]; [9]", "value": 10, "unit": "mg/kg-day"}]}
{"smiles": "FC(F)Cl", "note": "[Chlorodifluoromethane]", "values": [{"measurement": "LOAEL", "setting": "Rattus norvegicus [1]; [10]", "value": 177000, "unit": "mg/m3"}, {"measurement": "NOAEL", "setting": "Rattus norvegicus [1]; [10]", "value": 35400, "unit": "mg/m3"}, {"measurement": "LOAEL", "setting": "Rattus norvegicus [1]; [11]", "value": 177000, "unit": "mg/m3"}, {"measurement": "NOAEL", "setting": "Rattus norvegicus [1]; [11]", "value": 3540, "unit": "mg/m3"}]}
{"smiles": "CC(C)OC(=O)Nc1cccc(Cl)c1", "note": "[Chlorpropham]", "values": [{"measurement": "NOAEL", "setting": "Rattus norvegicus [2]; duration: 90 days, diet, Clinical Observation: Pale + Body Weight Changes: decrease + Hematology: RBC decrease, HGB decrease, HCT decrease, MCV increase, MCH …", "value": "< 720", "unit": "mg/kg-day"}, {"measurement": "LEL", "setting": "Rattus norvegicus [1]; [12]", "value": 150, "unit": "mg/kg-day"}, {"measurement": "NOEL", "setting": "Rattus norvegicus [1]; [12]", "value": 50, "unit": "mg/kg-day"}]}
{"smiles": "CN(C)NC(=O)CCC(=O)O", "note": "[Daminozide]", "values": [{"measurement": "NOEL", "setting": "Rattus norvegicus [1]; reproduction developmental, oral, no effects", "value": 15, "unit": "mg/kg-day"}]}
{"smiles": "CCOC(C)(C)C", "note": "[Ethyl t-butyl ether]", "values": [{"measurement": "NOAEL", "setting": "Rattus norvegicus [1]; chronic, duration: 2 years, inhalation, Fischer 344, Increased absolute kidney weight in female rats", "value": 6270, "unit": "mg/m3"}]}
{"smiles": "CC(C)Oc1cccc(NC(=O)c2ccccc2C(F)(F)F)c1", "note": "[Flutolanil]", "values": [{"measurement": "NOEL", "setting": "Rattus norvegicus [5]; Sprague-Dawley, inactive + Negative + neither + negative", "value": 1000, "unit": "mg/kg-day"}, {"measurement": "LEL", "setting": "Rattus norvegicus [1]; reproduction developmental, oral, Decreased body weight and body weight gains in both doses increased liver weights at high dose", "value": 63.7, "unit": "mg/kg-day"}]}
{"smiles": "COC(=O)c1ccccc1S(=O)(=O)NC(=O)Nc1nc(C)nc(OC)n1", "note": "[Metsulfuron-methyl]", "values": [{"measurement": "LEL", "setting": "Rattus norvegicus [1]; [13]", "value": 250, "unit": "mg/kg-day"}, {"measurement": "NOEL", "setting": "Rattus norvegicus [1]; [13]", "value": 25, "unit": "mg/kg-day"}]}
{"smiles": "[Mo]", "note": "[Molybdenum]", "values": [{"measurement": "NOAEL", "setting": "Rattus norvegicus [3]; subchronic, duration: 90 days, oral, M/F, Sprague-Dawley, renal", "value": 17, "unit": "mg/kg-day"}]}
{"smiles": "c1ccc2sc(SN3CCOCC3)nc2c1", "note": "[N-Oxydiethylene-2-benzothiazylsulfenamide]", "values": [{"measurement": "LD50", "setting": "Oryctolagus sp.; occlusive", "value": "> 5010", "unit": "mg/kg"}, {"measurement": "NOAEL", "setting": "Oryctolagus sp.; reproduction developmental, duration: 21 days", "value": 2000, "unit": "mg/kg-day"}, {"measurement": "LC50", "setting": "Rattus norvegicus [4]; inhalation, particle", "value": "> 151", "unit": "µg/mL"}, {"measurement": "LD50", "setting": "Rattus norvegicus [4]; oral", "value": 7000, "unit": "mg/kg"}, {"measurement": "LD50", "setting": "Rattus norvegicus [4]; oral, gavage, Sprague-Dawley", "value": "12600 mg/kg and > 7940 mg/kg"}, {"measurement": "LD50", "setting": "Rattus norvegicus [4]; oral, gavage, Wistar", "value": "> 10000", "unit": "mg/kg"}, {"measurement": "NOAEL", "setting": "Rattus norvegicus [4]; developmental, duration: 10 days, oral, gavage", "value": 1000, "unit": "mg/kg-day"}, {"measurement": "NOAEL", "setting": "Rattus norvegicus [4]; developmental, duration: 21 days, oral, diet, Wistar", "value": 270, "unit": "mg/kg-day"}, {"measurement": "LOAEL", "setting": "Rattus norvegicus [4]; [14]", "value": 10.2, "unit": "mg/m3"}, {"measurement": "NOAEL", "setting": "Rattus norvegicus [4]; [14]", "value": 9.8, "unit": "mg/m3"}, {"measurement": "NOAEL", "setting": "Rattus norvegicus [4]; reproduction developmental, duration: 10 days, oral, gavage, F", "value": 100, "unit": "mg/kg-day"}, {"measurement": "NOAEL", "setting": "Rattus norvegicus [4]; reproduction developmental, duration: 21 days, oral, diet, F, Wistar", "value": 270, "unit": "mg/kg-day"}, {"measurement": "LOAEL", "setting": "Rattus norvegicus [4]; [15]", "value": 500, "unit": "mg/kg-day"}, {"measurement": "NOAEL", "setting": "Rattus norvegicus [4]; [15]", "value": 200, "unit": "mg/kg-day"}]}
